Here are results for 10 compounds from patent US9981950B2, “Triazoles as NR2B receptor inhibitors” (Janssen Pharmaceuticals, Inc., priority 2014, dated 2018).

By IC50 is commonly meant the concentration needed to halve the response being measured. High values mean weaker potency in that assay, low ones greater potency in that assay.

Test [1] has as its target T1, rat NR1/NR2B receptor (Rattus norvegicus (Rat), UniProt P35439+Q00960). Nature of the test: RRNR2BB: inhibition of specific binding to the rat NR1/NR2B receptor. The note with it: [3H]-Ifenprodil binding, rat brain membranes, Hill-plot 2-parameter-model. Summed up: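 Washed membranes from male Wistar rat forebrain (whole brain minus cerebellum) in 5 mM Tris/1 mM EDTA pH 7.4 used in ifenprodil-site binding, 60 min at 4° C. Nonspecific binding defined with […] CP101.606; bound separated by filtration on PEI-soaked filters. IC50 from Hill plot, 2-parameter model.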

The target of test [2] is hERG-receptor (Homo sapiens (Human), UniProt Q12809). Nature of the test: HERGBD: inhibition of specific 3H-Dofetilide binding to the hERG-receptor. The note with it: HEK cell membranes with human ERG, Hill-plot 2-parameter-model. Summed up: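 Membranes from HEK cells stably expressing human ERG incubated 90 min at RT with 1.5 nmol/l 3H-dofetilide in 20 mM HEPES/0.1 mM KCl pH 7.2, inhibitor in 1% DMSO. Nonspecific binding with […] dofetilide; bound ligand separated by filtration and scintillation counted.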

The target of test [3] is T1, rat NR1/NR2B receptor. Nature of the test: NR2B binding assay: inhibition of specific [3H]-Ifenprodil binding to the rat NR1/NR2B receptor. As to conditions: rat brain membranes, Hill-plot 2-parameter-model. In outline: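 Binding ran 60 min at 4 °C on washed membranes from male Wistar rat brain without cerebellum, in 5 mM Tris/1 mM EDTA, pH 7.4, and was ended by filtration through polyethylene-imine-presoaked filters. […] CP101.606 defined nonspecific binding.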

hERG-receptor, sequence (Q12809 whole entry): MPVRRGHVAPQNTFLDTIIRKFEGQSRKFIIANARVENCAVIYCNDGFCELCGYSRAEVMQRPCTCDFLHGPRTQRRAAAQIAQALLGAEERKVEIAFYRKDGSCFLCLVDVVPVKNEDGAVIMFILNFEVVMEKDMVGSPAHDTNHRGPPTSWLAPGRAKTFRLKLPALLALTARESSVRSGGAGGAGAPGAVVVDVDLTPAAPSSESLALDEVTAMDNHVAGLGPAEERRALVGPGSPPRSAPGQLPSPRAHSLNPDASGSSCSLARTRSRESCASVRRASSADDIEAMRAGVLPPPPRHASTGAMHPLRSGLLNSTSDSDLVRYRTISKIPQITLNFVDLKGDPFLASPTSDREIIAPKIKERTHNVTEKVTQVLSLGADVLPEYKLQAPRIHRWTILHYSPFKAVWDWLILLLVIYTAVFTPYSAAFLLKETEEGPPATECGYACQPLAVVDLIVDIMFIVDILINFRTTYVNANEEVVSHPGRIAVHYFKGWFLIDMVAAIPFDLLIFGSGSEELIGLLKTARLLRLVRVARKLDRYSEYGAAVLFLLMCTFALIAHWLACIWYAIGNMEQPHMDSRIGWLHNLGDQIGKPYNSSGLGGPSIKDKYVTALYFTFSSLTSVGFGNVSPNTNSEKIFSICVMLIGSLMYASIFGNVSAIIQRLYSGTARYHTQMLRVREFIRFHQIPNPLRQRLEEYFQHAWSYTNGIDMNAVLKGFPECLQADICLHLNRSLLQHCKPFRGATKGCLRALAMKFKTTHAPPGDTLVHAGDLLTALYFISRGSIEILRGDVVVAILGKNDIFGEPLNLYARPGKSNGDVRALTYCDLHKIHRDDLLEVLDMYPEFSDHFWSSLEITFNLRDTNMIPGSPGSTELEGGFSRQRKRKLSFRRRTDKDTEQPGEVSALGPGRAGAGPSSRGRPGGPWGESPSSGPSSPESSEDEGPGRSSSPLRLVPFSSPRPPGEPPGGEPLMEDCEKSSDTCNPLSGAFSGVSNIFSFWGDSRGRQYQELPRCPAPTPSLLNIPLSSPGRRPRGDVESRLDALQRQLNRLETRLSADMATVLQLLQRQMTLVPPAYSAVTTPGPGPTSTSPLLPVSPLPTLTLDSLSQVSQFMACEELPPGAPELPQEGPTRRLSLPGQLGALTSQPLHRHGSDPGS
T1 sequence (Q00960 27-1482, other chains not shown): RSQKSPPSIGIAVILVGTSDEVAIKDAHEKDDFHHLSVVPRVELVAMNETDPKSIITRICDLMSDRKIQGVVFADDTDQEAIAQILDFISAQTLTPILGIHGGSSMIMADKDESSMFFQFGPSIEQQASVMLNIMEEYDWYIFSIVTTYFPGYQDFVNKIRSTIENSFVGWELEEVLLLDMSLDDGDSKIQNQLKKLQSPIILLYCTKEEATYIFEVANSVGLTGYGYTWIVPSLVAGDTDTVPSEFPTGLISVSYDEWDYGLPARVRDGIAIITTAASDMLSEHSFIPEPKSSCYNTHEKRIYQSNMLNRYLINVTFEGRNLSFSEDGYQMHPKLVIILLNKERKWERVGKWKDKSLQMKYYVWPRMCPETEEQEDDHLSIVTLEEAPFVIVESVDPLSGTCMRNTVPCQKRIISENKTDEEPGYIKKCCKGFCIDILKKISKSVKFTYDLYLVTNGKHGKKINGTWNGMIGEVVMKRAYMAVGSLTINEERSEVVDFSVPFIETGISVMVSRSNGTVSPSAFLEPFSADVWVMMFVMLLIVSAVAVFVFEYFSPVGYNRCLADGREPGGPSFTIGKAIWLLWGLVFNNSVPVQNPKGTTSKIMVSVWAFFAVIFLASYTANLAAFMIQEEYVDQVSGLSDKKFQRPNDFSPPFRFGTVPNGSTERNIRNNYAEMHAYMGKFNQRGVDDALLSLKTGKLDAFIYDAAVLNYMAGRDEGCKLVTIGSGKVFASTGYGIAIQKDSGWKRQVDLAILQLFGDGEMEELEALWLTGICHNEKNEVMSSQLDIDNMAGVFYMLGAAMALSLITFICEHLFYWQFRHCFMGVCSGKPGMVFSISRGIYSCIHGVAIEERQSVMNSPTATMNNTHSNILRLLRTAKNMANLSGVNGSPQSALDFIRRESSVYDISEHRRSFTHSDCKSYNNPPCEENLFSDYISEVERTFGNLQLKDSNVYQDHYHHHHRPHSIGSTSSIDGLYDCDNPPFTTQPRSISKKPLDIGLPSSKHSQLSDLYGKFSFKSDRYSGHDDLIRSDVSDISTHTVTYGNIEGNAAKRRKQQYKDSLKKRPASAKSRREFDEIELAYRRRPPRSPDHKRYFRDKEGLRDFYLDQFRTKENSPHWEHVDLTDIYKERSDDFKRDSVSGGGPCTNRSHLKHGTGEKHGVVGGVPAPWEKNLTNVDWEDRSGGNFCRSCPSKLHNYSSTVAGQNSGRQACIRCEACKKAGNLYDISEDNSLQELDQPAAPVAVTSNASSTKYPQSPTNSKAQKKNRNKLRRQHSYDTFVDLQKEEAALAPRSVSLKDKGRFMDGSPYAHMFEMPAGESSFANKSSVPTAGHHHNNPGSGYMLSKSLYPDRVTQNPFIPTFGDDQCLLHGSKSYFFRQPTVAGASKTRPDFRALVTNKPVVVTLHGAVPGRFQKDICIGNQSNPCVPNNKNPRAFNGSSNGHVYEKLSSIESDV

As for `CC(C)c1nccn1Cc1cn(-c2ccc(Cl)cc2)nn1` [Example 23, 1-(4-Chloro-phenyl)-4-(2-isopropyl-imidazol-1-ylmethyl)-1H-[1,2,3]triazole], the IC50 stood at 77.4 nM in test [1], 7940 nM in test [2] and 77.4 nM in test [3].

On to `Cc1nccn1Cc1cn(-c2ccc(F)c(C(F)F)c2)nn1` [Example 81, 1-(3-Difluoromethyl-4-fluoro-1-phenyl)-4-(2-methyl-imidazol-1-ylmethyl)-1H-[1,2,3]triazole], for which the results for the IC50 in test [1], in test [2] and in test [3] were 3.83 nM, 14300 nM and 3.83 nM, respectively.

Turning to `Fc1ccc(-n2cc(Cn3ccnc3C3CC3)nn2)cc1C(F)F` [Example 82, 4-(2-Cyclopropyl-imidazol-1-ylmethyl)-1-(3-difluoromethyl-4-fluoro-phenyl)-1H-[1,2,3]triazole], the 50% inhibitory concentration (IC50) in test [1] stood at 16.2 nM; in test [2], 15700 nM; in test [3], 16.2 nM.

As for `CC(C)c1nccn1Cc1cn(-c2ccc(F)c(C(F)F)c2)nn1` [Example 84, 1-(3-Difluoromethyl-4-fluoro-phenyl)-4-(2-isopropyl-imidazol-1-ylmethyl)-1H-[1,2,3]triazole], the IC50 in test [1] came to 11 nM; in test [2], 25100 nM; in test [3], 11 nM.

For the compound `Cc1nccn1Cc1cn(-c2ccc(Cl)c(OC(F)F)c2)nn1` [Example 93, 1-(4-Chloro-3-difluoromethoxy-phenyl)-4-(2-methyl-imidazol-1-ylmethyl)-1H-[1,2,3]triazole], the results for the 50% inhibitory concentration (IC50) in test [1], in test [2] and in test [3] were 1.2 nM, 9600 nM and 1.2 nM, respectively.

`OCCc1nccn1Cc1cn(-c2ccc(F)c(OC(F)F)c2)nn1` [Example 101, 1-(3-Difluoromethoxy-4-fluoro-phenyl)-4-[2-(2-hydroxy-ethyl)-imidazol-1-ylmethyl]-1H-[1,2,3]triazole]: the IC50 in test [1] turned out to be 4.26 nM; in test [2] it was 36700 nM; in test [3], 4.26 nM.

In the case of `Cn1nccc1Cc1cn(-c2ccc(F)c(Cl)c2)nn1` [Example 109, 1-(3-Chloro-4-fluoro-phenyl)-4-(2-methyl-2H-pyrazol-3-ylmethyl)-1H-[1,2,3]triazole], the IC50 in test [1] is 4320 nM; in test [2], more than 100000 nM; in test [3], 4320 nM.

As to `Nc1nccn1Cc1cn(-c2ccc(Cl)c(C(F)F)c2)nn1` [Example 113A, 4-(2-amino-imidazol-1-ylmethyl)-1-(4-chloro-3-difluoromethyl-phenyl)-1H-[1,2,3]triazole], the IC50 in test [1] came to 0.65 nM; in test [2] it was 3090 nM; in test [3] it was 0.65 nM.

Regarding `Nc1nccn1Cc1cn(-c2ccc(F)c(C(F)F)c2)nn1` [Example 113B, 4-(2-amino-imidazol-1-ylmethyl)-1-(4-fluoro-3-difluoromethyl-phenyl)-1H-[1,2,3]triazole], the results for the IC50 in test [1], in test [2] and in test [3] were 0.48 nM, 11000 nM and 0.48 nM, respectively.

`CC(F)(F)c1cc(-n2cc(Cn3ccnc3N)nn2)ccc1F` [Example 114]: the IC50 turned out to be 0.51 nM in test [1], 4310 nM in test [2] and 0.51 nM in test [3].
